Assays:
[1] = system: Chinese hamster lung fibroblast cell line VC8 (BRCA2−/−); experiment: In vitro cell proliferation inhibition (MTT), VC8 cells; type: cell-based; conditions: Cricetulus griseus, V-C8, 72 h, MTT, 72 h, VC8 (BRCA2−/−); read-out: VC8 cell IC50
PARP1 [2] = molecular target: T1, PARP1 (Homo sapiens, UniProt P09874); experiment: Enzymatic inhibition on the PARP family members (ELISA), PARP1; type: biochemical
PARP2 = PARP2 (Homo sapiens, UniProt Q9UGN5); experiment: Enzymatic inhibition on the PARP family members (ELISA), PARP2; type: biochemical; conditions: PARP family panel
PARP2, sequence (Q9UGN5 whole entry): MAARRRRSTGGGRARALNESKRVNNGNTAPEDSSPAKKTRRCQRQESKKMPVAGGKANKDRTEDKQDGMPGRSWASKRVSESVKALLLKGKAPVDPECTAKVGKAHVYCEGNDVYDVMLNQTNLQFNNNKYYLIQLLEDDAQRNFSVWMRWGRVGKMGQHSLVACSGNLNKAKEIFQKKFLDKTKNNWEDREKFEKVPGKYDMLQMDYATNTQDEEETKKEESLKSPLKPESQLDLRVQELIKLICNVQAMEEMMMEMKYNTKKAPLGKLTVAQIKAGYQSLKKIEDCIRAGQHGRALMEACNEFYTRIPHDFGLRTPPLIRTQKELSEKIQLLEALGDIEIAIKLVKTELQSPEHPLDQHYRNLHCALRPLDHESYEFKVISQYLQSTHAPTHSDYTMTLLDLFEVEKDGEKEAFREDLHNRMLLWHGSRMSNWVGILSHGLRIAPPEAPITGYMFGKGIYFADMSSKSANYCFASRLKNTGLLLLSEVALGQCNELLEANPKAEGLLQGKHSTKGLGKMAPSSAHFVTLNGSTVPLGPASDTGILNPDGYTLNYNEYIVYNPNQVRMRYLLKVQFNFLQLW

TNKS1 = molecular target: T2, TNKS1 (Homo sapiens, UniProt O95271); experiment: Enzymatic inhibition on the PARP family members (ELISA), TNKS1; type: biochemical; conditions: PARP family panel, 30° C.
T2 sequence (O95271 1-1327): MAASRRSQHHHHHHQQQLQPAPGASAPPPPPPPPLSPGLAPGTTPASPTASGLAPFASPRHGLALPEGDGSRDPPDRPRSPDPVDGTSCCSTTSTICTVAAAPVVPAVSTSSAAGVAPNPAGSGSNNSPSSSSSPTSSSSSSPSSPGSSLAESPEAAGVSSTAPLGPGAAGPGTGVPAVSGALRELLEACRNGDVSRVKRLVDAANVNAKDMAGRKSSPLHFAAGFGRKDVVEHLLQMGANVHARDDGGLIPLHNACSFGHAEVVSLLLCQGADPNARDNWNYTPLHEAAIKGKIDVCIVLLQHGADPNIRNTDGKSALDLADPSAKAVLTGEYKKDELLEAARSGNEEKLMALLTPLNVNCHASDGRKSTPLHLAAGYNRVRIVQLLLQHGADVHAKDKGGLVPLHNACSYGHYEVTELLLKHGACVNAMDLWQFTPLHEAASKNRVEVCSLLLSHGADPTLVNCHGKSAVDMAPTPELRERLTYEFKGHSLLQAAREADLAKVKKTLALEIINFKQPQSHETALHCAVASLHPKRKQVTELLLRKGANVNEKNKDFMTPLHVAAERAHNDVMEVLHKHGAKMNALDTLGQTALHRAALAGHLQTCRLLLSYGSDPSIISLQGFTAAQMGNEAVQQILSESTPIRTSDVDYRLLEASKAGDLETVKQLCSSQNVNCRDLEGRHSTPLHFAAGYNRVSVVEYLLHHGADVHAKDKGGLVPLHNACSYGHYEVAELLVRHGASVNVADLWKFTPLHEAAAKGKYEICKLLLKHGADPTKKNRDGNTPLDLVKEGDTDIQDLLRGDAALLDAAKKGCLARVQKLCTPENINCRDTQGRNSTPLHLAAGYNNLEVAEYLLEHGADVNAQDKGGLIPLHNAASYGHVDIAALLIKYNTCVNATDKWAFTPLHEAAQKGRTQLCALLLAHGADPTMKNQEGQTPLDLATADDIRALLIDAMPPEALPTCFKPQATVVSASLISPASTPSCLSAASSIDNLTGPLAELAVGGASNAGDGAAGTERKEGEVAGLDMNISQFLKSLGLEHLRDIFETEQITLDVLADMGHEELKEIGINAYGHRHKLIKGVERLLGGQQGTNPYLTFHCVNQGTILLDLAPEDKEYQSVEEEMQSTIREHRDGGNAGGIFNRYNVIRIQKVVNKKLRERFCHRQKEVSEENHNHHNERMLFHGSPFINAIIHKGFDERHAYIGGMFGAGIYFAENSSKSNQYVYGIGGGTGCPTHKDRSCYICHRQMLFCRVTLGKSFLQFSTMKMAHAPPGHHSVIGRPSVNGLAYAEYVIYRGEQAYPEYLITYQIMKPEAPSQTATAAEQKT

PARP1 [3] = molecular target: T1, PARP1; experiment: PARP1 enzymatic inhibition at molecular levels (ELISA); conditions: ELISA IC50, PARP1 enzyme, molecular level

T1 sequence (P09874 whole entry): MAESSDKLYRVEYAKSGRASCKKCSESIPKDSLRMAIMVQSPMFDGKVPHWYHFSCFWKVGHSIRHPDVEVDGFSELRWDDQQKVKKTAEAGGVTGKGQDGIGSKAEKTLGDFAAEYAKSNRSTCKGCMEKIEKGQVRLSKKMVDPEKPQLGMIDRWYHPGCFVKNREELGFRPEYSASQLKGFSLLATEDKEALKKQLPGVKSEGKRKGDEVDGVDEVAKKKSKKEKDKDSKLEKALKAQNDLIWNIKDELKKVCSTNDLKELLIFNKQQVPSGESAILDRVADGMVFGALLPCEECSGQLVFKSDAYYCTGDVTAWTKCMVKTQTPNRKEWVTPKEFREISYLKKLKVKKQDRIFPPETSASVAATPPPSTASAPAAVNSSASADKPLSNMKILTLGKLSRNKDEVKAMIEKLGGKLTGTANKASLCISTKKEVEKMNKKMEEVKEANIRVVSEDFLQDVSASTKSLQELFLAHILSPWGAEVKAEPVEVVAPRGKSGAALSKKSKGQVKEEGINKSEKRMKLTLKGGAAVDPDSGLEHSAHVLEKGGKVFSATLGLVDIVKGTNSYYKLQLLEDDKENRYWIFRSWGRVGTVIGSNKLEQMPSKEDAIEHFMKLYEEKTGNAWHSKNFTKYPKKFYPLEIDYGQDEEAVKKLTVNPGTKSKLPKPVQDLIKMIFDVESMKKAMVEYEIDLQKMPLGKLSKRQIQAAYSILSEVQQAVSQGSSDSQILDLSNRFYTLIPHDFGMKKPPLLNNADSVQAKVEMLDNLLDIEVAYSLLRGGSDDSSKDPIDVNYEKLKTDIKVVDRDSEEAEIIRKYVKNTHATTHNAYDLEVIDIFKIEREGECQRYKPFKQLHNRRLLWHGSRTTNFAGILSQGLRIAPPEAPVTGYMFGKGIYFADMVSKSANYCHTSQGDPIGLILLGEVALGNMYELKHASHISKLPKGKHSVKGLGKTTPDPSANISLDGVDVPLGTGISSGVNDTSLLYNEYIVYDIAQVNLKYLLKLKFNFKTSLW

CNCc1ccc(-c2cc3cc(F)cc(C(N)=O)c3o2)cc1 [compound 5b, 5-fluoro-2-{4-[(methylamino)methyl]phenyl}benzofuran-7-carboxamide]
IC50 [1]: 590 ± 150 nM | inhibitory activity on PARP1/2 relative to other isoenzymes in the family (PARP1 [2]; PARP1/2 versus PARP3, TNKS1, TNKS2, PARP6): at least 400 times | IC50 (PARP1 [2]; PARP family panel): 3.2 nM | IC50 (PARP2): 1.9 nM | IC50 (TNKS1): 1600 nM | IC50 (PARP1 [3]): 44.8 ± 12.5 nM
